# Measured values from patent US20220095617A1, “PLANT GROWTH REGULATING AGENT” (IDEMITSU KOSAN CO.,LTD., priority 2019, published 2022).
# Assays:
# [1] = tested on: lettuce (Green Wave); test: Example 4: High-temperature stress Petri dish test (lettuce), comparison with flavonoids; type: in vivo; settings: 0.1 ppm
# [2] = tested on: lettuce (Green Wave); test: Example 22: pH stress Petri dish test (lettuce); type: in vivo; settings: for Root length, Increase rate: non-addition group = 100.0
structure (smiles),measurement,setting,value
COc1ccc([C@@H]2CC(=O)c3c(O)cc(O[C@@H]4O[C@H](CO[C@@H]5O[C@@H](C)[C@H](O)[C@@H](O)[C@H]5O)[C@@H](O)[C@H](O)[C@H]4O)cc3O2)cc1O [Hesperidin],Root length,"[1]; High-temperature treatment (42° C., 1.5 hours)",16.5 mm
same,Root length,[1]; Normal cultivation,23.1 mm
same,"Root length, Average","[2]; Acid stress (pH 4), 0.1 ppm",17.69 mm
same,"Root length, Increase rate","[2]; Acid stress (pH 4), 0.1 ppm",121.9%
same,"Root length, Average","[2]; Acid stress (pH 4), 1 ppm",18.03 mm
same,"Root length, Increase rate","[2]; Acid stress (pH 4), 1 ppm",124.3%
same,"Root length, Average","[2]; Alkali stress (pH 9), 0.1 ppm",17.55 mm
same,"Root length, Increase rate","[2]; Alkali stress (pH 9), 0.1 ppm",114.1%
same,"Root length, Average","[2]; Alkali stress (pH 9), 1 ppm",17.40 mm
same,"Root length, Increase rate","[2]; Alkali stress (pH 9), 1 ppm",113.1%
